The text below walks through data of US20240109900A1, “AZABICYCLIC SHP2 INHIBITORS” (IRBM S.P.A., priority 2021, published 2024).

A value given as a limit tells only on which side of the number the result lay.

Assay [1] has as its system ERK phosphorylation in KYSE-520 cells. Kind of assay: Phospho-ERK cellular assay. In kind it is cell-based. The following applies: Homo sapiens, KYSE-520, 2 h, KYSE-520 cells, 2 h at 37° C., phospho-ERK1/2 (Thr202/Tyr204) TR-FRET; read-out: PERK IC50. Summed up: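 TR-FRET read-out of ERK1/2 Thr202/Tyr204 phosphorylation was taken after overnight antibody incubation at room temperature. Before that, KYSE-520 cells were treated 2 h at 37 °C with compound dilutions and lysed 30 min. Percent inhibition relative to vehicle and cell-free wells was fitted four-parametrically to give IC50.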

The target of assay [2] is SHP-2 enzyme (Met1-Leu525) (Homo sapiens (Human), UniProt Q06124). Kind of assay: SHP2 inhibition enzymatic assay. In kind it is biochemical. The following applies: 0.5 nM SHP-2 activated by 500 nM IRS1 peptide, 75 μM DiFMUP substrate; read-out: SHP2wt-IC50. Summed up:
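Compounds were preincubated 30 min with 0.5 nM SHP-2 (Met1-Leu525) plus 500 nM IRS1 activating peptide (pH 7.2 HEPES, 5 mM DTT), then 75 μM DiFMUP substrate reacted 30 min at room temperature. After bpV quench, DiFMUP fluorescence gave % inhibition; four-parameter logistic fit yielded IC50.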

Sequence of SHP-2 enzyme (Met1-Leu525) (Q06124 1-525): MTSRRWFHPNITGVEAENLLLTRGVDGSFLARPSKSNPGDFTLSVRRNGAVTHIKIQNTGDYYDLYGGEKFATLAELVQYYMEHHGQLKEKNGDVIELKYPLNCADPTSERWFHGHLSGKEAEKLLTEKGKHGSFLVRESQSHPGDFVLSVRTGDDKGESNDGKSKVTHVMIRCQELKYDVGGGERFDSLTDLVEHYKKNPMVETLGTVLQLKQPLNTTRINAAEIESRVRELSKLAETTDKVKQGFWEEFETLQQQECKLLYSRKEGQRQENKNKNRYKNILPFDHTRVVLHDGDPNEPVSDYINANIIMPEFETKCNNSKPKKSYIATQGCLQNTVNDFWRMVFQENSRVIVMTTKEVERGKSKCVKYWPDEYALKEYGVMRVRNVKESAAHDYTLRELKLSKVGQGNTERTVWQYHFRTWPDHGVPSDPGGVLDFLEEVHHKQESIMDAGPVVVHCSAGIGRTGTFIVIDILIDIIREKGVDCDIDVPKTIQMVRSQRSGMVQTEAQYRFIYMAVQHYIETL

As for `CNc1nccc(-c2n[nH]c3nc(N4CCC5C(C4)C5(CN)c4ccccc4F)cnc23)c1Cl` (centres unmarked) [Example 16, 4-(6-(7-(aminomethyl)-7-(2-fluorophenyl)-3-azabicyclo[4.1.0]heptan-3-yl)-1H-pyrazolo[3,4-b]pyrazin-3-yl)-3-chloro-N-methylpyridin-2-amine], the IC50 was under 1000 nM in assay [1] and under 500 nM in assay [2].
The matching figures for `Cc1csc([C@@]2(CN)[C@@H]3CCN(c4cnc5c(-c6cc7ccnn7cc6Cl)n[nH]c5n4)C[C@@H]32)n1` [Example 481, ((1S,6R,7S)-3-(3-(6-chloropyrazolo[1,5-a]pyridin-5-yl)-1H-pyrazolo[3,4-b]pyrazin-6-yl)-7-(4-methylthiazol-2-yl)-3-azabicyclo[4.1.0]heptan-7-yl)methanamine]: under 1000 nM and under 500 nM.
In the case of `NCC1(c2ccc(F)cc2)C2CCN(c3cnc4c(-c5ccc6nccnc6c5)n[nH]c4n3)CC21` (centres unmarked) [Example 11, (7-(4-fluorophenyl)-3-(3-(quinoxalin-6-yl)-1H-pyrazolo[3,4-b]pyrazin-6-yl)-3-azabicyclo[4.1.0]heptan-7-yl)methanamine], the values for the IC50 in assay [1] and in assay [2] were over 5000 nM and under 500 nM, respectively.
Consider `NC[C@]1(c2ccccc2F)[C@@H]2CCN(c3cnc4c(-c5ccc6cc(Cl)cnc6c5)n[nH]c4n3)C[C@@H]21` [Example 255, ((1S,6R,7R)-3-(3-(3-chloroquinolin-7-yl)-1H-pyrazolo[3,4-b]pyrazin-6-yl)-7-(2-fluorophenyl)-3-azabicyclo[4.1.0]heptan-7-yl)methanamine], for which the figures for the IC50 in assay [1] and in assay [2] were over 5000 nM and under 500 nM, respectively.
On to `NC[C@]1(c2ccccc2F)[C@@H]2CCN(c3cnc4c(-c5ccc6cccnc6c5)n[nH]c4n3)C[C@@H]21` [Example 252, ((1S,6R,7R)-7-(2-fluorophenyl)-3-(3-(quinolin-7-yl)-1H-pyrazolo[3,4-b]pyrazin-6-yl)-3-azabicyclo[4.1.0]heptan-7-yl)methanamine], for which the IC50 in assay [1] is under 1000 nM; in assay [2] it was under 500 nM.
In the case of `NCC1(c2ccccn2)C2CCN(c3cnc(Sc4cccnc4C(F)(F)F)c(N)n3)CC21` (centres unmarked) [Example 72, 6-(7-(aminomethyl)-7-(pyridin-2-yl)-3-azabicyclo[4.1.0]heptan-3-yl)-3-((2-(trifluoromethyl)pyridin-3-yl)thio)pyrazin-2-amine], the half-maximal inhibitory concentration (IC50) in assay [1] is under 1000 nM; in assay [2], under 500 nM.
The matching figures for `NC[C@]1(c2ccccc2F)[C@@H]2CCN(c3cnc4c(-c5ccc(C(N)=O)c(Cl)c5Cl)n[nH]c4n3)C[C@@H]21` [Example 241, 4-(6-((1S,6R,7R)-7-(aminomethyl)-7-(2-fluorophenyl)-3-azabicyclo[4.1.0]heptan-3-yl)-1H-pyrazolo[3,4-b]pyrazin-3-yl)-2,3-dichlorobenzamide]: under 1000 nM and under 500 nM.
For the compound `Cc1csc(C2(CN)C3CCN(c4cnc5c(-c6ccc(F)c7ncccc67)n[nH]c5n4)CC32)n1` (centres unmarked) [Example 92, (3-(3-(8-fluoroquinolin-5-yl)-1H-pyrazolo[3,4-b]pyrazin-6-yl)-7-(4-methylthiazol-2-yl)-3-azabicyclo[4.1.0]heptan-7-yl)methanamine], the figures for the half-inhibitory concentration (IC50) in assay [1] and in assay [2] were under 1000 nM and under 500 nM, respectively.
The matching figures for `Cc1c(-c2n[nH]c3nc(N4CC[C@@H]5[C@H](C4)[C@@]5(CN)c4ccccc4Cl)cnc23)ccc2nn(C)cc12` [Example 180, ((1S,6R,7R)-7-(2-chlorophenyl)-3-(3-(2,4-dimethyl-2H-indazol-5-yl)-1H-pyrazolo[3,4-b]pyrazin-6-yl)-3-azabicyclo[4.1.0]heptan-7-yl)methanamine]: under 1000 nM and under 500 nM.
Regarding `NC[C@]1(c2ccccc2F)[C@@H]2CCN(c3cnc4c(-c5ccc6nn(CC(F)(F)F)cc6c5Cl)n[nH]c4n3)C[C@@H]21` [Example 361, ((1S,6R,7R)-3-(3-(4-chloro-2-(2,2,2-trifluoroethyl)-2H-indazol-5-yl)-1H-pyrazolo[3,4-b]pyrazin-6-yl)-7-(2-fluorophenyl)-3-azabicyclo[4.1.0]heptan-7-yl)methanamine], the IC50 in assay [1] was under 1000 nM; in assay [2], under 500 nM.
